Test results taken from patent US11274083B2, “Substituted thiophenyl uracils, salts thereof and the use thereof as herbicidal agents” (Syngenta Crop Protection AG, priority 2017, dated 2022).

Tests used:
Format in all cases: in vivo
Oryza sativa = assay: Crop compatibility post-emergence, greenhouse pot test
Method in brief: (§1)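 Visual % damage versus untreated plants, read about 3 weeks after treatment (100% = plants died, 0% = as control). Crops were sown in sandy loam pots in a greenhouse and sprayed at one-leaf stage with WP/EC compound in water with 0.5% additive, 600 L/ha.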

Zea mays = assay: as above
Method in brief: as §1

Alopecurus myosuroides [1] = assay: Herbicidal action post-emergence, greenhouse pot test; conditions: scored visually after about 3 weeks vs untreated controls
Method in brief: (§2)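 Compounds formulated as wettable powders or emulsion concentrates were applied post-emergence at 80 g/ha or lower to one-leaf plants grown in sandy loam. Percent efficacy relative to untreated controls was assessed visually roughly 3 weeks after treatment.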

Echinochloa crus-galli [2] = assay: as above
Method in brief: as §2

Stellaria media [3] = assay: as above
Method in brief: as §2

Matricaria inodora [4] = assay: as above
Method in brief: as §2

Amaranthus retroflexus [5] = assay: as above
Method in brief: as §2

Viola tricolor [6] = assay: as above
Method in brief: as §2

Abutilon theophrasti [7] = assay: as above
Method in brief: as §2

Pharbitis purpurea [8] = assay: as above
Method in brief: as §2

Polygonum convolvulus [9] = assay: as above
Method in brief: as §2

Setaria viridis [10] = assay: as above
Method in brief: as §2

Lolium rigidum [11] = assay: as above
Method in brief: as §2

Hordeum murinum [12] = assay: as above
Method in brief: as §2

Avena fatua [13] = assay: as above; conditions: application rate 20 g/ha
Method in brief: as §2

Veronica persica [14] = assay: as above
Method in brief: as §2

Digitaria sanguinalis = assay: as above; conditions: application rate 20 g/ha
Matricaria inodora [15] = assay: Herbicidal action pre-emergence, greenhouse pot test
Alopecurus myosuroides [16] = assay: as above; conditions: application rate 320 g/ha
Method in brief: (§3)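 Visual scoring of percentage efficacy against untreated controls, about 3 weeks after treatment, gives the value; 100% means dead plants, 0% means no difference. Test compounds went onto the covering soil of freshly sown pots at 320 g/ha or lower.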

Echinochloa crus-galli [17] = assay: as above; conditions: application rate 320 g/ha
Method in brief: as §3

Stellaria media [18] = assay: as above
Method in brief: as §3

Amaranthus retroflexus [19] = assay: as above
Method in brief: as §3

Viola tricolor [20] = assay: as above
Method in brief: as §3

Abutilon theophrasti [21] = assay: as above
Method in brief: as §3

Pharbitis purpurea [22] = assay: as above
Method in brief: as §3

Polygonum convolvulus [23] = assay: as above
Method in brief: as §3

Setaria viridis [24] = assay: as above
Method in brief: as §3

Lolium rigidum [25] = assay: as above
Method in brief: as §3

Hordeum murinum [26] = assay: as above; conditions: application rate 320 g/ha
Method in brief: as §3

Avena fatua [27] = assay: as above; conditions: application rate 320 g/ha
Method in brief: as §3

Veronica persica [28] = assay: as above
Method in brief: as §3

Cyperus esculentus = assay: as above; conditions: application rate 320 g/ha
Method in brief: as §3

Triticum aestivum = assay: Crop compatibility post-emergence, greenhouse pot test; conditions: application rate 5 g/ha
Method in brief: as §1

CC(Sc1cc(-n2c(=O)cc(C(F)(F)F)n(C)c2=O)c(F)cc1Cl)C(=O)OC1COC(=O)C1 (stereo not shown) [I.1-144]
Oryza sativa (Efficacy in %) (Oryza sativa; application rate 5 g/ha): 20%
Zea mays (Efficacy in %) (Zea mays; application rate 5 g/ha): 10%
Alopecurus myosuroides (Efficacy in %) (Alopecurus myosuroides [1]; application rate 20 g/ha): 80%
Echinochloa crus-galli (Efficacy in %) (Echinochloa crus-galli [2]; application rate 20 g/ha): 100%
Stellaria media (Efficacy in %) (Stellaria media [3]; application rate 20 g/ha): 80%
Matricaria inodora (Efficacy in %) (Matricaria inodora [4]; application rate 20 g/ha): 100%
Amaranthus retroflexus (Efficacy in %) (Amaranthus retroflexus [5]; application rate 20 g/ha): 100%
Viola tricolor (Efficacy in %) (Viola tricolor [6]; application rate 20 g/ha): 100%
Abutilon theophrasti (Efficacy in %) (Abutilon theophrasti [7]; application rate 20 g/ha): 100%
Pharbitis purpurea (Efficacy in %) (Pharbitis purpurea [8]; application rate 20 g/ha): 100%
Polygonum convolvulus (Efficacy in %) (Polygonum convolvulus [9]; application rate 20 g/ha): 100%
Setaria viridis (Efficacy in %) (Setaria viridis [10]; application rate 20 g/ha): 100%
Lolium rigidum (Efficacy in %) (Lolium rigidum [11]; application rate 20 g/ha): 100%
Hordeum murinum (Efficacy in %) (Hordeum murinum [12]; application rate 20 g/ha): 80%
Avena fatua (Efficacy in %) (Avena fatua [13]): 100%
Veronica persica (Efficacy in %) (Veronica persica [14]; application rate 20 g/ha): 100%
Digitaria sanguinalis (Efficacy in %) (Digitaria sanguinalis): 80%

CC(C)NC(=O)COC(=O)C(C)Sc1cc(-n2c(=O)cc(C(F)(F)F)n(C)c2=O)c(F)cc1Cl (stereo not shown) [I.1-184]
Zea mays (Efficacy in %) (Zea mays; application rate 20 g/ha): 20%
Alopecurus myosuroides (Efficacy in %) (Alopecurus myosuroides [1]; application rate 80 g/ha): 80%
Echinochloa crus-galli (Efficacy in %) (Echinochloa crus-galli [2]; application rate 80 g/ha): 100%
Stellaria media (Efficacy in %) (Stellaria media [3]; application rate 80 g/ha): 100%
Matricaria inodora (Efficacy in %) (Matricaria inodora [4]; application rate 80 g/ha): 100%
Amaranthus retroflexus (Efficacy in %) (Amaranthus retroflexus [5]; application rate 80 g/ha): 100%
Viola tricolor (Efficacy in %) (Viola tricolor [6]; application rate 80 g/ha): 100%
Abutilon theophrasti (Efficacy in %) (Abutilon theophrasti [7]; application rate 80 g/ha): 100%
Pharbitis purpurea (Efficacy in %) (Pharbitis purpurea [8]; application rate 80 g/ha): 100%
Polygonum convolvulus (Efficacy in %) (Polygonum convolvulus [9]; application rate 80 g/ha): 100%
Setaria viridis (Efficacy in %) (Setaria viridis [10]; application rate 20 g/ha): 100%
Lolium rigidum (Efficacy in %) (Lolium rigidum [11]; application rate 80 g/ha): 100%
Hordeum murinum (Efficacy in %) (Hordeum murinum [12]; application rate 80 g/ha): 80%
Veronica persica (Efficacy in %) (Veronica persica [14]; application rate 80 g/ha): 100%
Matricaria inodora (Efficacy in %) (Matricaria inodora [15]; application rate 80 g/ha): 100%
Alopecurus myosuroides (Efficacy in %) (Alopecurus myosuroides [16]): 90%
Echinochloa crus-galli (Efficacy in %) (Echinochloa crus-galli [17]): 100%
Stellaria media (Efficacy in %) (Stellaria media [18]; application rate 80 g/ha): 100%
Amaranthus retroflexus (Efficacy in %) (Amaranthus retroflexus [19]; application rate 80 g/ha): 100%
Viola tricolor (Efficacy in %) (Viola tricolor [20]; application rate 80 g/ha): 100%
Abutilon theophrasti (Efficacy in %) (Abutilon theophrasti [21]; application rate 80 g/ha): 100%
Pharbitis purpurea (Efficacy in %) (Pharbitis purpurea [22]; application rate 80 g/ha): 100%
Polygonum convolvulus (Efficacy in %) (Polygonum convolvulus [23]; application rate 80 g/ha): 100%
Setaria viridis (Efficacy in %) (Setaria viridis [24]; application rate 80 g/ha): 100%
Lolium rigidum (Efficacy in %) (Lolium rigidum [25]; application rate 320 g/ha): 100%
Hordeum murinum (Efficacy in %) (Hordeum murinum [26]): 90%
Avena fatua (Efficacy in %) (Avena fatua [27]): 90%
Veronica persica (Efficacy in %) (Veronica persica [28]; application rate 80 g/ha): 100%

COC(=O)CCOC(=O)CSc1cc(-n2c(=O)cc(C(F)(F)F)n(C)c2=O)c(F)cc1Cl [I.8-2]
Alopecurus myosuroides (Efficacy in %) (Alopecurus myosuroides [1]; application rate 80 g/ha): 80%
Echinochloa crus-galli (Efficacy in %) (Echinochloa crus-galli [2]; application rate 80 g/ha): 100%
Stellaria media (Efficacy in %) (Stellaria media [3]; application rate 20 g/ha): 100%
Matricaria inodora (Efficacy in %) (Matricaria inodora [4]; application rate 20 g/ha): 100%
Amaranthus retroflexus (Efficacy in %) (Amaranthus retroflexus [5]; application rate 20 g/ha): 100%
Viola tricolor (Efficacy in %) (Viola tricolor [6]; application rate 80 g/ha): 100%
Abutilon theophrasti (Efficacy in %) (Abutilon theophrasti [7]; application rate 80 g/ha): 100%
Pharbitis purpurea (Efficacy in %) (Pharbitis purpurea [8]; application rate 80 g/ha): 100%
Polygonum convolvulus (Efficacy in %) (Polygonum convolvulus [9]; application rate 20 g/ha): 100%
Setaria viridis (Efficacy in %) (Setaria viridis [10]; application rate 80 g/ha): 100%
Lolium rigidum (Efficacy in %) (Lolium rigidum [11]; application rate 80 g/ha): 90%
Hordeum murinum (Efficacy in %) (Hordeum murinum [12]; application rate 20 g/ha): 80%
Veronica persica (Efficacy in %) (Veronica persica [14]; application rate 80 g/ha): 100%
Matricaria inodora (Efficacy in %) (Matricaria inodora [15]; application rate 320 g/ha): 100%
Cyperus esculentus (Efficacy in %) (Cyperus esculentus): 90%
Alopecurus myosuroides (Efficacy in %) (Alopecurus myosuroides [16]): 80%
Echinochloa crus-galli (Efficacy in %) (Echinochloa crus-galli [17]): 100%
Stellaria media (Efficacy in %) (Stellaria media [18]; application rate 320 g/ha): 100%
Amaranthus retroflexus (Efficacy in %) (Amaranthus retroflexus [19]; application rate 20 g/ha): 100%
Viola tricolor (Efficacy in %) (Viola tricolor [20]; application rate 320 g/ha): 100%
Abutilon theophrasti (Efficacy in %) (Abutilon theophrasti [21]; application rate 320 g/ha): 100%
Pharbitis purpurea (Efficacy in %) (Pharbitis purpurea [22]; application rate 320 g/ha): 100%
Polygonum convolvulus (Efficacy in %) (Polygonum convolvulus [23]; application rate 320 g/ha): 100%
Setaria viridis (Efficacy in %) (Setaria viridis [24]; application rate 320 g/ha): 100%
Lolium rigidum (Efficacy in %) (Lolium rigidum [25]; application rate 80 g/ha): 90%
Hordeum murinum (Efficacy in %) (Hordeum murinum [26]): 80%
Avena fatua (Efficacy in %) (Avena fatua [27]): 80%
Veronica persica (Efficacy in %) (Veronica persica [28]; application rate 80 g/ha): 100%

COC(=O)COC(=O)CSc1cc(-n2c(=O)cc(C(F)(F)F)n(C)c2=O)c(F)cc1Cl [I.8-42]
Oryza sativa (Efficacy in %) (Oryza sativa; application rate 20 g/ha): 0%
Triticum aestivum (Efficacy in %) (Triticum aestivum): 20%
Echinochloa crus-galli (Efficacy in %) (Echinochloa crus-galli [2]; application rate 80 g/ha): 100%
Stellaria media (Efficacy in %) (Stellaria media [3]; application rate 80 g/ha): 100%
Matricaria inodora (Efficacy in %) (Matricaria inodora [4]; application rate 20 g/ha): 100%
Amaranthus retroflexus (Efficacy in %) (Amaranthus retroflexus [5]; application rate 20 g/ha): 100%
Viola tricolor (Efficacy in %) (Viola tricolor [6]; application rate 80 g/ha): 100%
Abutilon theophrasti (Efficacy in %) (Abutilon theophrasti [7]; application rate 80 g/ha): 100%
Pharbitis purpurea (Efficacy in %) (Pharbitis purpurea [8]; application rate 80 g/ha): 100%
Polygonum convolvulus (Efficacy in %) (Polygonum convolvulus [9]; application rate 80 g/ha): 100%
Setaria viridis (Efficacy in %) (Setaria viridis [10]; application rate 80 g/ha): 100%
Hordeum murinum (Efficacy in %) (Hordeum murinum [12]; application rate 80 g/ha): 80%
Veronica persica (Efficacy in %) (Veronica persica [14]; application rate 80 g/ha): 100%
Matricaria inodora (Efficacy in %) (Matricaria inodora [15]; application rate 320 g/ha): 100%
Cyperus esculentus (Efficacy in %) (Cyperus esculentus): 100%
Echinochloa crus-galli (Efficacy in %) (Echinochloa crus-galli [17]): 100%
Stellaria media (Efficacy in %) (Stellaria media [18]; application rate 320 g/ha): 100%
Amaranthus retroflexus (Efficacy in %) (Amaranthus retroflexus [19]; application rate 20 g/ha): 100%
Viola tricolor (Efficacy in %) (Viola tricolor [20]; application rate 320 g/ha): 100%
Abutilon theophrasti (Efficacy in %) (Abutilon theophrasti [21]; application rate 320 g/ha): 100%
Pharbitis purpurea (Efficacy in %) (Pharbitis purpurea [22]; application rate 320 g/ha): 100%
Polygonum convolvulus (Efficacy in %) (Polygonum convolvulus [23]; application rate 320 g/ha): 100%
Setaria viridis (Efficacy in %) (Setaria viridis [24]; application rate 320 g/ha): 100%
Lolium rigidum (Efficacy in %) (Lolium rigidum [25]; application rate 320 g/ha): 80%
Hordeum murinum (Efficacy in %) (Hordeum murinum [26]): 80%
Avena fatua (Efficacy in %) (Avena fatua [27]): 80%
Veronica persica (Efficacy in %) (Veronica persica [28]; application rate 320 g/ha): 100%
